{"source": "patent US20240262844A1", "about": "“PYRIDINIUM SALTS AND METHODS OF USE” (UNIVERSITY OF WYOMING, priority 2023, published 2024)", "molecular_target": "T1, bovine carbonic anhydrase II (29 kDa) (Bos taurus, UniProt P00921)", "T1 construct": "Carbonic Anhydrase Isozyme II from bovine erythrocytes; purchased Sigma Aldrich; host or cells: bovine erythrocytes", "T1 sequence (P00921 whole entry)": "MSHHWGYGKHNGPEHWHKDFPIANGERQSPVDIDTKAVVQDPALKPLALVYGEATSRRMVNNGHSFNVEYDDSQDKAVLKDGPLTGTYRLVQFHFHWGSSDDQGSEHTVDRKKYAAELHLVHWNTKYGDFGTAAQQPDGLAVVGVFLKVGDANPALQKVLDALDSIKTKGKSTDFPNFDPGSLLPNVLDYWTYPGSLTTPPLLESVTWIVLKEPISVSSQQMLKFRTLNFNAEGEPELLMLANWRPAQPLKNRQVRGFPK", "experiment": "Photochemical labeling of bovine carbonic anhydrase II (LC/MS, MS-MS)", "assay_type": "biochemical", "procedure": "General Procedure B: Photochemical Irradiation of Peptides and Proteins: To a 2 mL Pyrex LC/MS vial (Thermo model #03-391-39) were sequentially added solutions containing the desired biomolecule, glutathione (GSH), pyridinium salt, and ammonium acetate (NH4OAc). The resulting solution was diluted to a final volume of 500 μL and then sparged using nitrogen for a minimum of 30 minutes prior to irradiation. The actively sparging solution was then placed in an EvoluChem™ PhotoRedOx Box photoreactor that was equipped with a Kessil, PR160 427 nm LED Lamp and was then irradiated (100% lamp intensity) for the designated time at room temperature while maintaining active sparging. The resultant reaction mixture was then analyzed directly by LC/MS. […]\nLabeling of Bovine Carbonic Anhydrase II with Pyridinium Salt 2a (Bovine Carbonic Anhydrase II-2a Conjugate). […] The reaction mixture was directly analyzed by LC/MS using method A and was estimated to have proceeded with 34% conversion and a 4.5:1 mono:di labeled ratio. […]\nGeneral Trypsin Digest Protocol B: For non-cystine bridged labeled proteins, a standard trypsin digest was modified as follows. […] The digested mixture was analyzed directly by LC/MS and MS/MS using method C. […] The reduced product was analyzed by LC/MS-MS by selecting m/z=1108.4 for collision-induced dissociation (Collision energy=35 V). […]", "note": "Structures can show the parent of a compound that is named as a salt.", "data": [{"smiles": "COC(=O)N(C)[n+]1c(C)cc(-c2ccc3cc(OC)ccc3c2)cc1C", "note": "[Pyridinium salt 2a, 1-((methoxycarbonyl)(methyl)amino)-4-(6-methoxynapthalen-2-yl)-2,6-dimethylpyridin-1-ium tetrafluoroborate]", "values": [{"measurement": "glutathionylation", "setting": "10 μM carbonic anhydrase II, 200 μM pyridinium salt, 300 μM glutathione, 60 minutes", "value": "No glutathionylation was observed"}, {"measurement": "identifiable site of modification", "setting": "digestion/MS-MS", "value": "Trp-243"}]}]}
